Measured values: PubChem BioAssay (NCI)
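Cells were grown in 96-well plates and exposed to each compound for 48 hours at five concentrations; endpoints were interpolated linearly between bracketing concentrations, or set to the highest concentration if not reached. The concentration for 50% growth inhibition is given as GI50. TGI marks complete inhibition of growth.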 Where a SMILES comes first, the peptide text is derived from it. [ ]: non-standard residue; d: D form. The star is where a group is joined. ξ: configuration not given here. 4Abz = Nc1ccc(C(=O)O)cc1; ξL = CC(C)CC(N)C(=O)O; NHOH = ON*

Assays:
Test in all cases: NCI tumour cell line growth inhibition, 48 h
ACHN renal = tested on: ACHN renal
HT29 colon = tested on: HT29 colon
KM12 colon = tested on: KM12 colon
MOLT-4 leukemia = tested on: MOLT-4 leukemia
OVCAR-3 ovarian = tested on: OVCAR-3 ovarian
SF-268 CNS = tested on: SF-268 CNS
SNB-19 CNS = tested on: SNB-19 CNS
PC-3 prostate = tested on: PC-3 prostate
SK-MEL-2 melanoma = tested on: SK-MEL-2 melanoma
SR leukemia = tested on: SR leukemia

SMILES	TGI (ACHN renal) [µM]	TGI (HT29 colon) [µM]	TGI (KM12 colon) [µM]	TGI (MOLT-4 leukemia) [µM]	TGI (OVCAR-3 ovarian) [µM]	TGI (SF-268 CNS) [µM]	TGI (SNB-19 CNS) [µM]	GI50 (ACHN renal) [µM]	GI50 (HT29 colon) [µM]	GI50 (KM12 colon) [µM]	GI50 (MOLT-4 leukemia) [µM]	GI50 (OVCAR-3 ovarian) [µM]	GI50 (PC-3 prostate) [µM]	TGI (PC-3 prostate) [µM]	GI50 (SF-268 CNS) [µM]	GI50 (SK-MEL-2 melanoma) [µM]	TGI (SK-MEL-2 melanoma) [µM]	GI50 (SNB-19 CNS) [µM]	TGI (SR leukemia) [µM]
CCOc1cccc2cccnc12	> 100	> 100	> 100	> 100	> 100	> 100	> 100	–	–	–	–	–	–	–	–	–	–	–	–
CC(C)CC(NC(=O)[C@@H]1CCCN1C(=O)CNC(=O)c1ccc(N)cc1)C(=O)N[C@H](C)C(=O)NO (some centres not stated) (H-[4Abz]GP[ξL][dA]-{NHOH})	> 100	> 100	> 100	> 100	> 100	> 100	> 100	> 100	> 100	> 100	> 100	> 100	> 100	> 100	> 100	> 100	> 100	> 100	–
COc1ncn(C2C=C(CO)C(O)C2O)c(=O)n1 (configuration not stated)	> 100	–	> 100	> 100	> 100	> 100	–	–	–	–	–	–	–	–	–	–	> 100	–	–
CCOC(=O)C(=C=Cc1cccs1)C(=O)c1ccccc1	33.3	34.5	24.7	48.5	–	33.2	–	–	–	–	–	–	–	–	–	–	33.4	–	49
COC(=O)C(=O)C(C(=O)C(=O)Nc1ccc(Cl)cc1Cl)c1nc2ccc(Cl)cc2[nH]c1=O (configuration not stated)	> 100	> 100	> 100	> 100	> 100	> 100	> 100	–	–	–	–	–	–	> 100	–	–	> 100	–	–
CC(=O)OCC1OC(n2c(-c3ccc(N)cc3)cc(-c3ccco3)c(C#N)c2=O)C(OC(C)=O)C(OC(C)=O)C1OC(C)=O (configuration not stated)	> 50	> 50	> 50	> 50	> 50	> 50	> 50	–	–	–	–	–	–	–	–	–	> 50	–	> 50
CCCCCCCCOCC(O)COC (configuration not stated)	> 100	> 100	–	> 100	> 100	> 100	> 100	–	–	–	–	–	–	–	–	–	–	–	> 100
O=C(O)C(=O)/C=C\c1ccc(Cl)cc1	> 100	> 100	> 100	> 100	> 100	> 100	> 100	–	–	–	–	–	–	–	–	–	> 100	–	> 100
CC(=O)OC1CC[C@@]2(C)C(CC(OC3OC(CO)C(O)C(O)C3O)[C@]3(C)C2CCC24CC23CC[C@H]4C(C)CC(O)[C@@H](O)C(C)(C)O)C1(C)C (some centres not stated)	> 50	> 50	19.7	24.7	48.7	> 50	38.3	–	–	–	–	–	–	–	–	–	18.8	–	–
COc1ccc(OC)c(-c2cc(-c3ccc(Cl)cc3)nn2-c2ccc(S(N)(=O)=O)cc2)c1	–	–	21.2	> 100	39.8	32.9	–	–	–	5.16	3.52	22.1	3.62	15.7	13.9	35.1	> 100	–	–
COc1cc(OC)c(Oc2cccc(OC)c2OC)c(OC)c1	> 100	> 100	> 100	> 100	> 100	> 100	> 100	–	–	–	–	–	–	–	–	–	> 100	–	> 100
COC(=O)c1ccc2c(c1)[n+](=O)c(C(C)=O)c(C(F)(F)F)n2[O-]	3.24	3.25	3.19	17.6	3.27	3.24	9.12	1.76	1.73	1.76	2.95	1.82	1.64	3.63	1.76	2.23	4.8	3.12	–
CC(C)(C)NC(=O)C12C3C4C1C1C2C3C41I (configuration not stated)	–	> 100	> 100	> 100	–	–	> 100	–	–	–	–	–	–	–	–	–	> 100	–	> 100
C[N+](C)(C)CC(=O)NC(=O)N/N=C\C(CC#N)CN(Cc1ccccc1)Cc1ccccc1 (configuration not stated)	> 100	> 100	> 100	> 100	> 100	> 100	> 100	–	–	–	–	–	–	–	–	–	> 100	–	> 100
O=C1/C=C(/c2ccc(O)cc2)[C@H](O)Cc2ccc(OC3OC(CO)C(O)C(O)C3O)cc2O1 (some centres not stated) (tested in a mixture with another compound)	> 100	> 100	> 100	–	> 100	> 100	> 100	–	–	–	–	–	–	–	–	–	> 100	–	–
NC(N)=Nc1nc2cc(N)ccc2o1	> 100	> 100	> 100	> 100	–	> 100	> 100	–	–	–	–	–	–	–	–	–	> 100	–	> 100
Cc1cc(C)c(-c2noc(-c3ccc(Cl)cc3)c2C2=NCCN2)c(C)c1	> 100	34.2	54	41.3	44.7	37.4	> 100	–	–	–	–	–	–	–	–	–	43.8	–	48
COC(=O)C1=C(SC)SC2(C(=O)OC)C3C=C(C)C4C(N13)C42C(=O)OC (configuration not stated)	> 100	> 100	–	> 100	> 100	> 100	> 100	–	–	–	–	–	–	–	–	–	> 100	–	> 100
O=C(N/C(=C\c1cc(Cl)ccc1Cl)c1nc2ccccc2[nH]1)c1ccccc1	> 100	29.8	88.9	63.8	> 100	> 100	> 100	–	–	–	–	–	–	–	–	–	> 100	–	81.7
COC1=CC(=O)c2c(O)c3c(c(O)c2C1=O)CC(C)(O)OC3 (configuration not stated)	> 34	11.6	> 35.8	8.68	7.08	> 100	13.4	–	–	–	–	–	–	14.9	–	–	9.9	–	–
COc1ccc(-c2cc(-c3ccco3)c(C#N)c(=O)n2C2OC(OC(=O)c3ccccc3)C(OC(=O)c3ccccc3)C2OC(=O)c2ccccc2)cc1 (configuration not stated)	> 100	> 100	> 100	> 100	> 100	–	> 100	–	–	–	–	–	–	–	–	–	> 100	–	> 100
